Data from ChEMBL document CHEMBL1140961, “Synthesis and biological activity of some new benzoxazoles” (2008).
In brackets after ≈: the same amount, converted by molar mass.

Key:
Format in all cases: functional
Klebsiella pneumoniae [1] = assay: Antimicrobial activity against Klebsiella pneumoniae after 24 hrs by disk diffusion method
Staphylococcus aureus [2] = assay: Antimicrobial activity against Staphylococcus aureus ATCC 25923 after 24 hrs by disk diffusion method
Candida albicans [3] = assay: Antimicrobial activity against Candida albicans ATCC 10231 after 24 to 48 hrs after 24 hrs by disk diffusion method
Escherichia coli [4] = assay: Antimicrobial activity against Escherichia coli ATCC 25922 after 24 hrs by disk diffusion method
Pseudomonas aeruginosa = assay: Antimicrobial activity against Pseudomonas aeruginosa ATCC […] after 24 hrs by disk diffusion method
Klebsiella pneumoniae [5] = assay: Antimicrobial activity against Klebsiella pneumoniae RSHM 574 after 24 hrs by disk diffusion method
Bacillus subtilis [6] = assay: Antimicrobial activity against Bacillus subtilis ATCC 6633 after 24 hrs by disk diffusion method
Staphylococcus aureus [7] = assay: Antimicrobial activity against Staphylococcus aureus isolate after 24 hrs by disk diffusion method
Bacillus subtilis [8] = assay: Antimicrobial activity against Bacillus subtilis isolate after 24 hrs by disk diffusion method
Candida albicans [9] = assay: Antimicrobial activity against Candida albicans isolate after 24 to 48 hrs after 24 hrs by disk diffusion method
Escherichia coli [10] = assay: Antimicrobial activity against Escherichia coli isolate after 24 hrs by disk diffusion method

Compound	MIC (Klebsiella pneumoniae [1]) [µg/mL]	MIC (Staphylococcus aureus [2]; ATCC 25923, 24 h) [µg/mL]	MIC (Candida albicans [3]) [µg/mL]	MIC (Escherichia coli [4]; ATCC 25922, 24 h) [µg/mL]	MIC (Pseudomonas aeruginosa; ATCC 25853, 24 h) [µg/mL]	MIC (Klebsiella pneumoniae [5]) [µg/mL]	MIC (Bacillus subtilis [6]; ATCC 6633, 24 h) [µg/mL]	MIC (Staphylococcus aureus [7]) [µg/mL]	MIC (Bacillus subtilis [8]) [µg/mL]	MIC (Candida albicans [9]) [µg/mL]	MIC (Escherichia coli [10]) [µg/mL]	MIC (Staphylococcus aureus [2]) [µg/mL]	MIC (Escherichia coli [4]) [µg/mL]	MIC (Pseudomonas aeruginosa) [µg/mL]	MIC (Bacillus subtilis [6]) [µg/mL]
CCS(=O)(=O)c1ccc2oc(CCc3ccccc3)nc2c1	125 (≈ 396 µM)	125 (≈ 396 µM)	62.5 (≈ 198 µM)	62.5 (≈ 198 µM)	62.5 (≈ 198 µM)	31.2 (≈ 99.1 µM)	62.5 (≈ 198 µM)	125 (≈ 396 µM)	31.2 (≈ 99.1 µM)	62.5 (≈ 198 µM)	125 (≈ 396 µM)	–	–	–	–
CCS(=O)(=O)c1ccc2oc(-c3ccccc3Cl)nc2c1	125 (≈ 388 µM)	125 (≈ 388 µM)	31.2 (≈ 97.1 µM)	62.5 (≈ 194 µM)	62.5 (≈ 194 µM)	31.2 (≈ 97.1 µM)	15.6 (≈ 48.5 µM)	125 (≈ 388 µM)	31.2 (≈ 97.1 µM)	62.5 (≈ 194 µM)	125 (≈ 388 µM)	–	–	–	–
CCc1ccc(-c2nc3cc(S(=O)(=O)CC)ccc3o2)cc1	125 (≈ 396 µM)	125 (≈ 396 µM)	125 (≈ 396 µM)	62.5 (≈ 198 µM)	62.5 (≈ 198 µM)	62.5 (≈ 198 µM)	31.2 (≈ 99.1 µM)	125 (≈ 396 µM)	31.2 (≈ 99.1 µM)	15.6 (≈ 49.5 µM)	62.5 (≈ 198 µM)	–	–	–	–
CCS(=O)(=O)c1ccc2oc(-c3ccc(Br)cc3)nc2c1	125 (≈ 341 µM)	125 (≈ 341 µM)	125 (≈ 341 µM)	62.5 (≈ 171 µM)	62.5 (≈ 171 µM)	62.5 (≈ 171 µM)	15.6 (≈ 42.7 µM)	125 (≈ 341 µM)	31.2 (≈ 85.3 µM)	31.2 (≈ 85.3 µM)	62.5 (≈ 171 µM)	–	–	–	–
CCS(=O)(=O)c1ccc2oc(Cc3ccc(Cl)cc3)nc2c1	125 (≈ 372 µM)	125 (≈ 372 µM)	31.2 (≈ 93.1 µM)	62.5 (≈ 186 µM)	62.5 (≈ 186 µM)	62.5 (≈ 186 µM)	31.2 (≈ 93.1 µM)	125 (≈ 372 µM)	15.6 (≈ 46.5 µM)	62.5 (≈ 186 µM)	125 (≈ 372 µM)	–	–	–	–
CCS(=O)(=O)c1ccc2oc(-c3ccc([N+](=O)[O-])cc3)nc2c1	125 (≈ 376 µM)	125 (≈ 376 µM)	125 (≈ 376 µM)	62.5 (≈ 188 µM)	62.5 (≈ 188 µM)	125 (≈ 376 µM)	31.2 (≈ 94 µM)	125 (≈ 376 µM)	15.6 (≈ 47 µM)	62.5 (≈ 188 µM)	62.5 (≈ 188 µM)	–	–	–	–
CCS(=O)(=O)c1ccc2oc(-c3ccc(C(C)(C)C)cc3)nc2c1	250 (≈ 728 µM)	125 (≈ 364 µM)	125 (≈ 364 µM)	62.5 (≈ 182 µM)	62.5 (≈ 182 µM)	62.5 (≈ 182 µM)	7.81 (≈ 22.7 µM)	125 (≈ 364 µM)	15.6 (≈ 45.5 µM)	31.2 (≈ 91 µM)	62.5 (≈ 182 µM)	–	–	–	–
CCS(=O)(=O)c1ccc2oc(-c3ccc(C)cc3)nc2c1	31.2 (≈ 104 µM)	125 (≈ 415 µM)	125 (≈ 415 µM)	62.5 (≈ 207 µM)	62.5 (≈ 207 µM)	62.5 (≈ 207 µM)	31.2 (≈ 104 µM)	125 (≈ 415 µM)	31.2 (≈ 104 µM)	31.2 (≈ 104 µM)	62.5 (≈ 207 µM)	–	–	–	–
CCS(=O)(=O)c1ccc2oc(-c3cc(Br)ccc3Cl)nc2c1	125 (≈ 312 µM)	125 (≈ 312 µM)	62.5 (≈ 156 µM)	62.5 (≈ 156 µM)	62.5 (≈ 156 µM)	62.5 (≈ 156 µM)	62.5 (≈ 156 µM)	125 (≈ 312 µM)	31.2 (≈ 78 µM)	62.5 (≈ 156 µM)	125 (≈ 312 µM)	–	–	–	–
C[C@@H]1[C@H](O)[C@@H](C)/C=C/C=C/C=C/C=C/C=C/C=C/C=C/[C@H](O[C@@H]2O[C@H](C)[C@@H](O)[C@H](N)[C@@H]2O)C[C@@H]2O[C@](O)(C[C@@H](O)C[C@@H](O)[C@H](O)CC[C@@H](O)C[C@@H](O)CC(=O)O[C@H]1C)C[C@H](O)[C@H]2C(=O)O [AMPHOTERICIN B]	–	–	1 (≈ 1.08 µM)	–	–	–	–	–	–	1 (≈ 1.08 µM)	–	–	–	–	–
CCS(=O)(=O)c1ccc2oc(Cc3ccc(Br)cc3)nc2c1	125 (≈ 329 µM)	125 (≈ 329 µM)	62.5 (≈ 164 µM)	62.5 (≈ 164 µM)	62.5 (≈ 164 µM)	62.5 (≈ 164 µM)	62.5 (≈ 164 µM)	125 (≈ 329 µM)	15.6 (≈ 41.1 µM)	62.5 (≈ 164 µM)	125 (≈ 329 µM)	–	–	–	–
CC1(C)S[C@@H]2[C@H](NC(=O)[C@H](N)c3ccccc3)C(=O)N2[C@H]1C(=O)O.O.O.O [AMPICILLIN TRIHYDRATE]	256	0.03	–	8	4100	2	0.25	2	8	–	256	–	–	–	–
CCS(=O)(=O)c1ccc2oc(Cc3ccc(F)cc3)nc2c1	125 (≈ 391 µM)	125 (≈ 391 µM)	62.5 (≈ 196 µM)	62.5 (≈ 196 µM)	62.5 (≈ 196 µM)	31.2 (≈ 97.9 µM)	62.5 (≈ 196 µM)	125 (≈ 391 µM)	31.2 (≈ 97.9 µM)	31.2 (≈ 97.9 µM)	125 (≈ 391 µM)	–	–	–	–
CC1COc2c(N3CCN(C)CC3)c(F)cc3c(=O)c(C(=O)O)cn1c23 (stereo not given) [OFLOXACIN]	64 (≈ 177 µM)	0.25 (≈ 0.692 µM)	–	0.125 (≈ 0.346 µM)	8 (≈ 22.1 µM)	0.25 (≈ 0.692 µM)	0.125 (≈ 0.346 µM)	2 (≈ 5.53 µM)	32 (≈ 88.6 µM)	–	32 (≈ 88.6 µM)	–	–	–	–
OC(Cn1cncn1)(Cn1cncn1)c1ccc(F)cc1F [FLUCONAZOLE]	–	–	1 (≈ 3.27 µM)	–	–	–	–	–	–	64 (≈ 209 µM)	–	–	–	–	–
CCS(=O)(=O)c1ccc2oc(Cc3ccccc3Cl)nc2c1	125 (≈ 372 µM)	125 (≈ 372 µM)	62.5 (≈ 186 µM)	62.5 (≈ 186 µM)	62.5 (≈ 186 µM)	31.2 (≈ 93.1 µM)	62.5 (≈ 186 µM)	125 (≈ 372 µM)	31.2 (≈ 93.1 µM)	62.5 (≈ 186 µM)	125 (≈ 372 µM)	–	–	–	–
CCS(=O)(=O)c1ccc2oc(-c3ccc(Cl)cc3)nc2c1	125 (≈ 388 µM)	125 (≈ 388 µM)	125 (≈ 388 µM)	62.5 (≈ 194 µM)	62.5 (≈ 194 µM)	62.5 (≈ 194 µM)	7.81 (≈ 24.3 µM)	125 (≈ 388 µM)	31.2 (≈ 97.1 µM)	15.6 (≈ 48.5 µM)	62.5 (≈ 194 µM)	–	–	–	–
CCS(=O)(=O)c1ccc2oc(-c3ccccc3)nc2c1	125 (≈ 435 µM)	125 (≈ 435 µM)	125 (≈ 435 µM)	62.5 (≈ 218 µM)	62.5 (≈ 218 µM)	125 (≈ 435 µM)	62.5 (≈ 218 µM)	125 (≈ 435 µM)	31.2 (≈ 109 µM)	31.2 (≈ 109 µM)	62.5 (≈ 218 µM)	–	–	–	–
GENTAMICIN SULFATE	64	–	–	–	–	8	–	1020	512	–	1	0.06	0.5	2	1
CCS(=O)(=O)c1ccc2oc(Cc3ccc(C)cc3)nc2c1	125 (≈ 396 µM)	125 (≈ 396 µM)	62.5 (≈ 198 µM)	62.5 (≈ 198 µM)	62.5 (≈ 198 µM)	62.5 (≈ 198 µM)	31.2 (≈ 99.1 µM)	125 (≈ 396 µM)	31.2 (≈ 99.1 µM)	62.5 (≈ 198 µM)	125 (≈ 396 µM)	–	–	–	–
CCS(=O)(=O)c1ccc2oc(-c3ccccc3F)nc2c1	125 (≈ 409 µM)	125 (≈ 409 µM)	62.5 (≈ 205 µM)	62.5 (≈ 205 µM)	62.5 (≈ 205 µM)	31.2 (≈ 102 µM)	62.5 (≈ 205 µM)	125 (≈ 409 µM)	31.2 (≈ 102 µM)	62.5 (≈ 205 µM)	250 (≈ 819 µM)	–	–	–	–
CCS(=O)(=O)c1ccc2oc(-c3cccc(C)c3C)nc2c1	125 (≈ 396 µM)	125 (≈ 396 µM)	31.2 (≈ 99.1 µM)	62.5 (≈ 198 µM)	62.5 (≈ 198 µM)	31.2 (≈ 99.1 µM)	15.6 (≈ 49.5 µM)	125 (≈ 396 µM)	31.2 (≈ 99.1 µM)	62.5 (≈ 198 µM)	250 (≈ 793 µM)	–	–	–	–
CCS(=O)(=O)c1ccc2oc(-c3ccc(F)cc3)nc2c1	125 (≈ 409 µM)	125 (≈ 409 µM)	125 (≈ 409 µM)	62.5 (≈ 205 µM)	62.5 (≈ 205 µM)	31.2 (≈ 102 µM)	31.2 (≈ 102 µM)	125 (≈ 409 µM)	31.2 (≈ 102 µM)	31.2 (≈ 102 µM)	62.5 (≈ 205 µM)	–	–	–	–
CCS(=O)(=O)c1ccc2oc(-c3ccccc3Br)nc2c1	125 (≈ 341 µM)	125 (≈ 341 µM)	62.5 (≈ 171 µM)	62.5 (≈ 171 µM)	62.5 (≈ 171 µM)	31.2 (≈ 85.3 µM)	15.6 (≈ 42.7 µM)	125 (≈ 341 µM)	31.2 (≈ 85.3 µM)	62.5 (≈ 171 µM)	250 (≈ 683 µM)	–	–	–	–
